Blank lines part the entries; values can stand above or below the compound they belong to.
What was measured:
[1] = target: T1, E3 ubiquitin-protein ligase CBL-B (Homo sapiens, UniProt Q13191); test: Inhibition of N-terminal Avi-tagged human CBL-B (36 to 427 residues) incubated with 60 nM Src kinase for 1.5 hrs followed by incubation with fluorescently labeled UbcH5B-Ub for 1 hr and measured by TR-FRET assay; format: single protein
[2] = target: T1, E3 ubiquitin-protein ligase CBL-B; test: Binding affinity towards N-terminal biotinylated Avi-tagged human CBL-B (36 to 427 residues) measured by surface plasmon resonance assay
[3] = Induction of anti-CD3/CD28 antibodies-stimulated human T cell activation at 1 uM assessed fold increase in IL-2 secretion measured by ELISA assay; format: functional, T cell line
[4] = Induction of anti-CD3/CD28 antibodies-stimulated human T cell activation at 0.3 uM assessed fold increase in IL-2 secretion measured by ELISA assay; format: functional, T cell line
[5] = Induction of anti-CD3 antibodies-stimulated human T cell activation at 1 uM assessed fold increase in IL-2 secretion measured by ELISA assay; format: functional, T cell line; also: reference of the scale not given here
[6] = Induction of anti-CD3/CD28 antibodies-stimulated human T cell activation at 1 uM assessed fold increase in CD25 expression measured by ELISA assay; format: functional, T cell line
[7] = Induction of anti-CD3/CD28 antibodies-stimulated human T cell activation at 0.3 uM assessed fold increase in CD25 expression measured by ELISA assay; format: functional, T cell line
[8] = Induction of anti-CD3 antibodies-stimulated human T cell activation at 1 uM assessed fold increase in CD25 expression measured by ELISA assay; format: functional, T cell line; also: reference of the scale not given here
[9] = Induction of anti-CD3/CD28 antibodies-stimulated human T cell activation at 4 uM assessed fold increase in IL-2 secretion measured by ELISA assay; format: functional, T cell line
[10] = Induction of anti-CD3 antibodies-stimulated human T cell activation at 8 uM assessed fold increase in IL-2 secretion measured by ELISA assay; format: functional, T cell line; also: reference of the scale not given here
[11] = Induction of anti-CD3/CD28 antibodies-stimulated human T cell activation at 4 uM assessed fold increase in CD25 expression measured by ELISA assay; format: functional, T cell line
[12] = Induction of anti-CD3 antibodies-stimulated human T cell activation at 8 uM assessed fold increase in CD25 expression measured by ELISA assay; format: functional, T cell line; also: reference of the scale not given here

T1 sequence (Q13191 whole entry, the tested form may be a part): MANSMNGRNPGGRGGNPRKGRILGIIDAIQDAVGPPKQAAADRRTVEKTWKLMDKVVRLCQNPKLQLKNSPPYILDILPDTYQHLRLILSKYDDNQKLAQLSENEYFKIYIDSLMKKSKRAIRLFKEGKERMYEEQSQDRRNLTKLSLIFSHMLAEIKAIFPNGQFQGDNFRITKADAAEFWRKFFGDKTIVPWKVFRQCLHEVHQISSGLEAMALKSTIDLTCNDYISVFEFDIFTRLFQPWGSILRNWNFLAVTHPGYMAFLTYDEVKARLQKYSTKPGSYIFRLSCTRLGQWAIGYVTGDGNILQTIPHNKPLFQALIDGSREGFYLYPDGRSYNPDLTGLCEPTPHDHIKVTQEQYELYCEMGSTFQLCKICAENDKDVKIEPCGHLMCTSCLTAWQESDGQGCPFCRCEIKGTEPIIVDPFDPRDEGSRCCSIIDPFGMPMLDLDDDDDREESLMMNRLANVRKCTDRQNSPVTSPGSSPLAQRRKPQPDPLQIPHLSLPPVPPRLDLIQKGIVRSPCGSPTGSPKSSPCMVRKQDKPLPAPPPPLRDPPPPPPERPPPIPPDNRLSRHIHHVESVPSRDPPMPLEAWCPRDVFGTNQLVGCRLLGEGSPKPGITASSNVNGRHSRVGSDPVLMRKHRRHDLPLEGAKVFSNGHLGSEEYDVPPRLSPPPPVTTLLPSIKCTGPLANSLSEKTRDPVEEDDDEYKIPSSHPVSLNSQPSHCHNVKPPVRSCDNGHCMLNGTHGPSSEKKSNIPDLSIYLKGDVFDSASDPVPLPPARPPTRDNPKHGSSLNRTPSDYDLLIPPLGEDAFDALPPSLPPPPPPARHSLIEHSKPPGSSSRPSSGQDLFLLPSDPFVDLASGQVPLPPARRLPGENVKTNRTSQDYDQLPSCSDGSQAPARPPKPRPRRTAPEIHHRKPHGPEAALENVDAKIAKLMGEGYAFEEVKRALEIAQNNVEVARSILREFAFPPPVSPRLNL

- IC50 [1]: < 0.1 µM
- Kd [2]: < 0.1 µM
SMILES: C[C@H](c1cc2c(c(C(F)(F)F)c1)CN(c1cccc(C3(C(F)(F)c4nncn4C)COC3)c1)C2=O)N1CC[C@H](F)C1
- fold change (FC) [3]: >=7.5
- fold change (FC) [4]: >=7.5
- fold change (FC) [5]: >=0.201
- fold change (FC) [6]: >=1.76
- fold change (FC) [7]: >=1.76
- fold change (FC) [8]: >=1.001

- Kd [2]: > 10 µM
SMILES: C[C@H](Cc1nnco1)c1cccc(N2Cc3c(cccc3C(F)(F)F)C2=O)c1

- Kd [2]: > 10 µM
SMILES: Cc1cnc(C(=O)Nc2cccc([C@H](C)Sc3nncn3C)c2)cc1C(F)(F)F

- Kd [2]: > 10 µM
SMILES: C[C@H](Sc1nncn1C)c1cccc(NC(=O)c2cccc(C(F)(F)F)c2)c1

- IC50 [1]: < 0.1 µM
- Kd [2]: < 0.1 µM
SMILES: Cn1cnnc1CC1(c2cccc(NC(=O)c3cc(Cn4ccnn4)nc(C4CC4)n3)c2)COC1
- fold change (FC) [3]: 2.51
- fold change (FC) [4]: 1.01
- fold change (FC) [5]: 0.101
- fold change (FC) [6]: 1.31
- fold change (FC) [7]: 1.01
- fold change (FC) [8]: 0.801

- Kd [2]: > 10 µM
SMILES: C[C@H](Sc1nncn1C)c1cccc(NC(=O)c2cc(C(=O)N3CCCC3)ccn2)c1

- Kd [2]: > 10 µM
SMILES: C[C@H](Sc1nncn1C)c1ccnc(NC(=O)c2cc(C(F)(F)F)c(Cl)cn2)c1

- Kd [2]: < 0.1 µM
SMILES: CC(O)C1CN(C(=O)c2ccnc(C(=O)Nc3cccc([C@H](C)Cc4nncn4C)c3)c2)C1 (some centres not stated)

- IC50 [1]: < 0.1 µM
- Kd [2]: < 0.1 µM
SMILES: C[C@H](c1cc2c(c(C(F)(F)F)c1)CN(c1cccc(C3([C@@H](F)c4nncn4C)COC3)c1)C2=O)N1CCC2(CC2)C1
- fold change (FC) [3]: >=7.5
- fold change (FC) [4]: >=7.5
- fold change (FC) [5]: >=0.201
- fold change (FC) [6]: >=1.76
- fold change (FC) [7]: >=1.76
- fold change (FC) [8]: >=1.001

- IC50 [1]: ≥ 3 µM
- Kd [2]: ≥ 3 µM
SMILES: CCn1cnnc1C[C@H](C)c1cccc(NC(=O)c2cc(S(C)(=O)=O)cc(C3CC3)n2)c1

- Kd [2]: < 0.1 µM
SMILES: Cc1cc(C(=O)Nc2cccc([C@@](C)(F)C(F)(F)c3nncn3C)c2)nc(C2CC2)n1
- fold change (FC) [9]: >=7.5
- fold change (FC) [3]: 2.51
- fold change (FC) [4]: 1.01
- fold change (FC) [10]: >=0.201
- fold change (FC) [5]: 0.101
- fold change (FC) [11]: 1.31
- fold change (FC) [6]: 1.31
- fold change (FC) [7]: 1.01
- fold change (FC) [12]: >=1.001
- fold change (FC) [8]: 0.801

- Kd [2]: > 10 µM
SMILES: C[C@H](Sc1nncn1C)c1cccc(NC(=O)c2cc(C(=O)N3C[C@@H](O)C[C@@H]3C)ccn2)c1

- Kd [2]: > 10 µM
SMILES: C[C@@H](Cc1nncn1C)c1ccnc(N2Cc3c(cccc3C(F)(F)F)C2=O)c1

- IC50 [1]: < 0.1 µM
- Kd [2]: < 0.1 µM
SMILES: C[C@H](Cc1nncn1C)c1cccc(N2Cc3c(cc(CN4CC[C@H](O)C4)cc3C(F)(F)F)C2=O)c1

- IC50 [1]: ≥ 3 µM
- Kd [2]: > 10 µM
SMILES: CC1=CC(C(=O)Nc2cccc([C@H](C)Sc3nncn3C)c2)=NC(=O)C1

- Kd [2]: < 0.1 µM
SMILES: CC(c1cccc(N2Cc3c(cccc3C(F)(F)F)C2=O)c1)C(F)(F)c1nncn1C (configuration not stated)

- Kd [2]: > 10 µM
SMILES: C[C@@H](Sc1nncn1C)c1cccc(NC(=O)c2cc(C(=O)N3CCC(O)C3)ccn2)c1 (single isomer, unassigned)

- Kd [2]: < 0.1 µM
SMILES: Cn1cnnc1C(F)(F)[C@](C)(F)c1cccc(N2Cc3c(cc(CN4CC(F)C4)cc3C(F)(F)F)C2=O)c1
- fold change (FC) [9]: >=7.5
- fold change (FC) [3]: 5
- fold change (FC) [4]: 1.01
- fold change (FC) [10]: >=0.201
- fold change (FC) [5]: 0.101
- fold change (FC) [11]: 1.31
- fold change (FC) [6]: 1.01
- fold change (FC) [7]: 1.01
- fold change (FC) [12]: >=1.001
- fold change (FC) [8]: 0.801

- Kd [2]: > 10 µM
SMILES: C[C@@H](Sc1nncn1C)c1ccnc(N2Cc3c(cccc3C(F)(F)F)C2=O)c1

- Kd [2]: > 10 µM
SMILES: C[C@H](Sc1nncn1C)c1cccc(NC(=O)c2cc(C(=O)N3C[C@H](O)C[C@H]3C)ccn2)c1

- Kd [2]: > 10 µM
SMILES: C[C@H](Cc1nncn1C)c1cccc(NC(=O)c2cc(C(=O)N3CC(O)C(F)(F)C3)ccn2)c1 (some centres not stated)
- fold change (FC) [9]: 2.51
- fold change (FC) [3]: <=1
- fold change (FC) [4]: <=1
- fold change (FC) [10]: >=0.201
- fold change (FC) [5]: >=0.201
- fold change (FC) [11]: 1.31
- fold change (FC) [6]: <=1
- fold change (FC) [7]: <=1
- fold change (FC) [12]: 0.801
- fold change (FC) [8]: 0.601

- Kd [2]: > 10 µM
SMILES: C[C@H](Cc1ncnn1C)c1cccc(N2Cc3c(cccc3C(F)(F)F)C2=O)c1

- Kd [2]: > 10 µM
SMILES: C[C@H](Sc1nncn1C)c1cccc(NC(=O)c2cc(C(=O)N3CCC[C@@H](O)C3)ccn2)c1

- Kd [2]: > 10 µM
SMILES: C[C@@H](Sc1nncn1C)c1ccc(F)c(NC(=O)c2cccc(C(F)(F)F)n2)c1

- Kd [2]: > 10 µM
SMILES: C[C@H](Sc1nncn1C)c1cccc(NC(=O)c2cc3cc(OCC(=O)O)ccc3cn2)c1

- Kd [2]: > 10 µM
SMILES: C[C@H](Sc1nncn1C)c1cccc(NC(=O)c2cc(NS(=O)(=O)CCO)ccn2)c1

- Kd [2]: > 10 µM
SMILES: CC(C)c1cccc(C(=O)Nc2cccc([C@H](C)Sc3nncn3C)c2)c1

- Kd [2]: > 10 µM
SMILES: COc1c(C(=O)Nc2cccc([C@H](C)Sc3nncn3C)c2)cccc1C(F)(F)F

- Kd [2]: > 10 µM
SMILES: C=CCC(Sc1nncn1C)c1cccc(NC(=O)c2cc3ccccc3cn2)c1 (configuration not stated)

- Kd [2]: > 10 µM
SMILES: C=CCC(Sc1nncn1C)c1cccc(NC(=O)c2ccc3ccccc3n2)c1 (configuration not stated)

- Kd [2]: > 10 µM
SMILES: C[C@H](Sc1nncn1C)c1cccc(NC(=O)c2cc(C(=O)N3CCC[C@H](O)C3)ccn2)c1

- Kd [2]: > 10 µM
SMILES: CC(Sc1nncn1C)c1ccc(F)c(NC(=O)c2ccc3ccccc3n2)c1 (configuration not stated)

- IC50 [1]: < 0.1 µM
- Kd [2]: < 0.1 µM
SMILES: Cn1cnnc1CC1(c2cccc(N3Cc4c(cc(CN5CC[C@H](F)C5)cc4C4CC4)C3=O)c2)COC1
- fold change (FC) [3]: >=7.5
- fold change (FC) [4]: >=7.5
- fold change (FC) [5]: 0.151
- fold change (FC) [6]: 1.31
- fold change (FC) [7]: 1.31
- fold change (FC) [8]: >=1.001

- IC50 [1]: < 0.1 µM
SMILES: Cn1cnnc1CC1(c2cccc(N3Cc4c(cc(CN5CC(C)(F)C5)cc4C(F)(F)F)C3=O)c2)COC1
- fold change (FC) [9]: >=7.5
- fold change (FC) [3]: >=7.5
- fold change (FC) [4]: >=7.5
- fold change (FC) [10]: >=0.201
- fold change (FC) [5]: >=0.201
- fold change (FC) [11]: 1.51
- fold change (FC) [6]: 1.51
- fold change (FC) [7]: 1.31
- fold change (FC) [12]: >=1.001
- fold change (FC) [8]: >=1.001

- IC50 [1]: < 0.1 µM
SMILES: CC(c1cc2c(c(C(F)(F)F)c1)CN(c1cccc([C@H]3C[C@H]3c3nncn3C)c1)C2=O)N1CC[C@H](F)C1 (some centres not stated)
- fold change (FC) [9]: >=7.5
- fold change (FC) [3]: >=7.5
- fold change (FC) [4]: 2.51
- fold change (FC) [10]: >=0.201
- fold change (FC) [5]: >=0.201
- fold change (FC) [11]: 1.51
- fold change (FC) [6]: 1.51
- fold change (FC) [7]: 1.31
- fold change (FC) [12]: >=1.001
- fold change (FC) [8]: >=1.001

- IC50 [1]: < 0.1 µM
SMILES: C[C@H](Sc1nncn1C)c1cccc(NC(=O)c2ccnc(C3CC3)n2)c1
- fold change (FC) [9]: 5
- fold change (FC) [3]: 2.51
- fold change (FC) [4]: <=1
- fold change (FC) [10]: 0.051
- fold change (FC) [5]: <=0.05
- fold change (FC) [11]: 1.31
- fold change (FC) [6]: 1.01
- fold change (FC) [7]: 1.01
- fold change (FC) [12]: >=1.001
- fold change (FC) [8]: 0.601

From ChEMBL document CHEMBL5050844 (2019)
